Laboratory results published in patent publication US20220073536A1 (Rigel Pharmaceuticals, Inc., priority 2003, published 2022).
Each block holds one molecule with its values, some of them ahead of it.

Assays:
[1] = test system: cultured human mast cells (CHMC); assay: CHMC low cell density IgE activation: tryptase assay; assay type: cell-based; details: IgE activation
Procedure, shortened: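 CHMC at 1000–1500 cells/well were preincubated 1 hr at 37° C., stimulated with anti-IgE for 30 minutes at 37° C., then pelleted. Supernatant tryptase was measured with a fluorogenic substrate after 30 min at room temperature, against un-stimulated control wells.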

[2] = test system: cultured human mast cells (CHMC); assay: CHMC low cell density ionomycin activation: tryptase assay; assay type: cell-based; details: read-out: LD Tryptase, CHMC, Iono, 3 pt
[3] = low cell density CHMC, tryptase readout, 3 pt, read-out: LD Tryptase, CHMC, IgE, 3 pt
[4] = low cell density CHMC, tryptase readout, 3 pt
[5] = Homo sapiens, Mast cell, low cell density CHMC, tryptase, 3 pt, read-out: LD Tryptase, CHMC, IgE, 3 pt
[6] = Homo sapiens, Mast cell, low cell density CHMC, tryptase, 3 pt
[7] = Homo sapiens, Mast cell, low cell density, 3 pt, read-out: LD Tryptase, CHMC, IgE, 3 pt
[8] = Homo sapiens, Mast cell, low cell density, 8 pt, read-out: LD Tryptase, CHMC, IgE, 8 pt
[9] = Homo sapiens, Mast cell, low cell density, 3 pt
[10] = low cell density CHMC, tryptase release, 3 point, read-out: LD Tryptase, CHMC, IgE, 3 pt
[11] = low cell density CHMC, tryptase release, 3 point
[12] = Homo sapiens, Mast cell, low cell density CHMC, tryptase release, 3 pt, read-out: LD Tryptase, CHMC, IgE, 3 pt
[13] = Homo sapiens, Mast cell, low cell density CHMC, tryptase release, 8 pt, read-out: LD Tryptase, CHMC, IgE, 8 pt
[14] = Homo sapiens, Mast cell, low cell density CHMC, tryptase release, 3 pt
[15] = low cell density CHMC, tryptase, 8 pt, read-out: LD Tryptase, CHMC, IgE, 8 pt
[16] = low cell density CHMC, tryptase, 3 pt
[17] = Homo sapiens, Mast cell, low cell density CHMC, tryptase, 8 pt, read-out: LD Tryptase, CHMC, IgE, 8 pt
[18] = low cell density CHMC, tryptase release, 8 point, read-out: LD Tryptase, CHMC, IgE, 8 pt
[19] = low cell density CHMC, tryptase, 3 pt, read-out: LD Tryptase, CHMC, IgE, 3 pt
[20] = Homo sapiens, Mast cell, low cell density CHMC, tryptase readout, 3 pt, read-out: LD Tryptase, CHMC, IgE, 3 pt
[21] = Homo sapiens, Mast cell, low cell density CHMC, tryptase readout, 8 pt, read-out: LD Tryptase, CHMC, IgE, 8 pt
[22] = Homo sapiens, Mast cell, low cell density CHMC, tryptase readout, 3 pt
[23] = Homo sapiens, Mast cell, low cell density CHMC, tryptase release, 3 point, read-out: LD Tryptase, CHMC, IgE, 3 pt
[24] = Homo sapiens, Mast cell, low cell density CHMC, tryptase release, 3 point

Molecule: CNS(=O)(=O)c1ccc(Nc2nc(Nc3cc(OC)cc(OC)c3)ncc2F)cc1OC [Compound 507]
IC50 [1, 7]: < 10 µM
IC50 [1, 8]: < 10 µM
IC50 [2, 9]: > 10 µM

Molecule: CC1(C)Oc2ccc(Nc3nc(Nc4cc(-c5ncco5)cc(C(F)(F)F)c4)ncc3F)cc2NC1=O [Compound 521, N4-(2,2-Dimethyl-3-oxo-4H-benz[1,4]oxazin-6-yl)-5-fluoro-N2-[3-(oxazol-2-yl)-5-trifluoromethylphenyl]-2,4-pyrimidinediamine]
IC50 [1, 7]: < 10 µM
IC50 [2, 9]: > 10 µM

Molecule: (R)-5-Fluoro-N2-[4- (N-methoxycarbonylmethyleneamino)carbonylphenyl]-N4- (2-methyl-3-oxo-2H,4H-benz[1,4]oxazin-6-yl)-2,4-pyrimidinediamine [Compound 1272]
IC50 [1, 15]: < 10 µM
IC50 [2, 16]: > 10 µM

Molecule: COc1cc(Nc2ncc(F)c(N(C)c3ccc4c(c3)OCCO4)n2)cc(OC)c1 [Compound 386]
IC50 [1, 5]: < 10 µM
IC50 [1, 17]: < 10 µM
IC50 [2, 6]: > 10 µM

Molecule: CCOC(=O)c1cc2cccc(Nc3ncc(F)c(N(C)c4ccc(OC)c(OC)c4)n3)c2[nH]1 [Compound 435, N4-(3,4-Dimethoxyphenyl)-N2-[2-(ethoxycarbonyl)indol-7-yl]-5-fluoro-N4-methyl-2,4-pyrimidinediamine]
IC50 [1, 5]: < 10 µM
IC50 [2, 6]: > 10 µM

Molecule: COc1ncc(F)c(N(C)c2ccc3c(c2)OCCO3)n1 [Compound 480]
IC50 [1, 7]: > 10 µM
IC50 [2, 9]: > 10 µM

Molecule: CCOC(=O)C(C)(C)Oc1ccc(Nc2nc(Nc3ccc(OC)c(Cl)c3)ncc2F)cc1Cl [Compound 410, N4-[3-Chloro-4-(ethoxycarbonyl-1,1-dimethylmethyleneoxy)phenyl]-N2-(3-chloro-4-methoxyphenyl)-5-fluoro-2,4-pyrimidinediamine]
IC50 [1, 19]: < 10 µM
IC50 [1, 15]: < 10 µM
IC50 [2, 16]: < 10 µM

Molecule: CNS(=O)(=O)c1ccc(Nc2nc(Cl)ncc2F)cc1OC [Compound 502, 2-Chloro-5-fluoro-N4-[4-(N-methylamino)sulfonyl-3-methoxyphenyl]-2,4-pyrimidineamine]
IC50 ([1]; low cell density, 3 pt, read-out: LD Tryptase, CHMC, IgE, 3 pt): > 10 µM
IC50 ([2]; low cell density, 3 pt): > 10 µM

Molecule: Cc1cc(N(C)c2nc(Nc3ccc(-c4cocn4)cc3)ncc2F)cc(C)c1Cl [Compound 604]
IC50 [1, 23]: < 10 µM
IC50 [2, 24]: > 10 µM

Molecule: COc1cc(C)c(Nc2ncc(F)c(Nc3ccc4c(c3)NC(=O)[C@H](C)O4)n2)cc1Cl [Compound 214]
IC50 [1, 12]: < 10 µM
IC50 [1, 13]: < 10 µM
IC50 [2, 14]: > 10 µM

Molecule: CN1CCOc2ccc(Nc3nc(Nc4ccc(-c5cnco5)cc4)ncc3F)cc21 [Compound 228]
IC50 [1, 12]: < 10 µM
IC50 [1, 13]: < 10 µM
IC50 [2, 14]: > 10 µM

Molecule: COc1cc(Nc2ncc(F)c(N(C)c3ccc4c(c3)N(C)C(=O)C(C)(C)O4)n2)cc(OC)c1 [Compound 393]
IC50 [1, 5]: < 10 µM
IC50 [2, 6]: < 10 µM

Molecule: (S)-5-Fluoro-N2-[4- (N-methoxycarbonylmethyleneamino)carbonylphenyl]-N4- (2-methyl-3-oxo-2H,4H-benz[1,4]oxazin-6-yl)-2,4-pyrimidinediamine [Compound 1271]
IC50 [1, 15]: < 10 µM
IC50 [2, 16]: > 10 µM

Molecule: COc1cc(Nc2ncc(F)c(Nc3ccc(Cl)cn3)n2)cc(OC)c1 [Compound 510]
IC50 [1, 7]: < 10 µM
IC50 [1, 8]: < 10 µM
IC50 [2, 9]: > 10 µM

Molecule: N4- (4-Chloro-3-methoxyphenyl)-5-fluoro-N2-[1-(methoxycarbonylmethylene)indol-5-yl]-2,4-pyrimidinediamine [Compound 645]
IC50 [1, 10]: < 10 µM
IC50 [1, 18]: < 10 µM
IC50 [2, 11]: > 10 µM

Molecule: Fc1cnc(Nc2ccc(-c3cnco3)cc2)nc1Nc1ccc2c(c1)NCCO2 [Compound 222, N4-(3,4-Dihydro-2H,4H-Benz[1,4]oxazin-6-yl)-5-fluoro-N2-[4-(oxazol-5-yl)phenyl]-2,4-pyrimidinediamine]
IC50 ([1]; low cell density CHMC, tryptase release, 3 pt, read-out: LD Tryptase, CHMC, IgE, 3 pt): < 10 µM
IC50 ([1]; low cell density CHMC, tryptase release, 8 pt, read-out: LD Tryptase, CHMC, IgE, 8 pt): < 10 µM
IC50 ([2]; low cell density CHMC, tryptase release, 3 pt): > 10 µM

Molecule: COc1ccc(N(C)c2nc(Nc3cc(C)c(OC)c(Cl)c3)ncc2F)cc1Cl [Compound 578, N2-(3-Chloro-4-methoxy-5-methylphenyl)-N4-(3-chloro-4-methoxyphenyl)-5-fluoro-N4-methyl-2,4-pyrimidinediamine]
IC50 [1, 23]: < 10 µM
IC50 [2, 24]: > 10 µM

Molecule: CC(=O)N1CCN(c2ccc(Nc3ncc(F)c(Nc4ccc5c(c4)OC(F)(F)C(F)(F)O5)n3)cc2)CC1 [Compound 432]
IC50 [1, 19]: < 10 µM
IC50 [2, 16]: > 10 µM

Second part, the molecule after the results:

IC50 [1, 3]: > 10 µM
IC50 [2, 4]: > 10 µM
Molecule: CC1(C)CNc2nc(Nc3nc(Cl)ncc3F)ccc2O1 [Compound 1051, 2-Chloro-N4-(3,4-dihydro-2,2-dimethyl-4H-5-pyrid[1,4]oxazin-6-yl)-5-fluoro-4-pyrimidineamine]

IC50 [1, 5]: < 10 µM
IC50 [2, 6]: > 10 µM
Molecule: O=C(Nc1ccc(Nc2ncc(F)c(NC3CCC3)n2)cc1)c1ccccc1 [Compound 1154, N2-(4-Benzamidophenyl)-N4-cyclobutyl-5-fluoro-2,4-pyrimidinediamine]

IC50 [1, 10]: > 10 µM
IC50 [2, 11]: > 10 µM
Molecule: CN(c1ccc2c(c1)OC(F)(F)O2)c1nc(Cl)ncc1F [Compound 628]

IC50 [1, 12]: < 10 µM
IC50 [1, 13]: < 10 µM
IC50 [2, 14]: > 10 µM
Molecule: COCCCn1ncc2ccc(Nc3ncc(F)c(Nc4ccc5c(c4)NC(=O)[C@H](C)O5)n3)cc21 [Compound 799, (S)-5-Fluoro-N2-[1-(3-methoxypropyl)indazol-6-yl]-N4-(2-methyl-3-oxo-2H,4H-benz[1,4]oxazin-6-yl)-2,4-pyrimidinediamine]

IC50 [1, 10]: < 10 µM
IC50 [1, 18]: < 10 µM
IC50 [2, 11]: > 10 µM
Molecule: COc1cc(Nc2ncc(F)c(Nc3ccc(OCCO)c(Cl)c3)n2)ccc1Cl [Compound 624, N4-[3-Chloro-4-(2-hydroxyethyleneoxy)phenyl]-N2-(4-chloro-3-methoxyphenyl)-5-fluoro-2,4-pyrimidinediamine]

IC50 [1, 12]: > 10 µM
IC50 [1, 13]: < 10 µM
IC50 [2, 14]: > 10 µM
Molecule: CC1(C)Oc2ccc(Nc3nc(Nc4ccc5c(cnn5CCCNS(C)(=O)=O)c4)ncc3F)cc2NC1=O [Compound 834, N4-(2,2-Dimethyl-3-oxo-4H-benz[1,4]oxazin-6-yl)-5-fluoro-N2-[1-[3-(N-methylsulfonylamino)propyl]indazol-5-yl]-2,4-pyrimidinediamine]

IC50 [1, 20]: < 10 µM
IC50 [1, 21]: < 10 µM
IC50 [2, 22]: > 10 µM
Molecule: COc1cc(Nc2ncc(F)c(NC3CCC3)n2)cc(C(F)(F)F)c1 [Compound 1089, N4-Cyclobutyl-5-fluoro-N2-(3-methoxy-5-trifluoromethylphenyl)-2,4-pyrimidinediamine]

IC50 [1, 3]: < 10 µM
IC50 ([1]; low cell density CHMC, tryptase readout, 8 pt, read-out: LD Tryptase, CHMC, IgE, 8 pt): < 10 µM
IC50 [2, 4]: > 10 µM
Molecule: CNC(=O)COc1cccc(Nc2ncc(F)c(Nc3ccc4c(n3)NCC(C)(C)O4)n2)c1 [Compound 1053, N4-(3,4-Dihydro-2,2-dimethyl-4H-5-pyrid[1,4]oxazin-6-yl)-5-fluoro-N2-[3-(N-methylamino)carbonylmethyleneoxyphenyl]-2,4-pyrimidinediamine]

IC50 [1, 20]: < 10 µM
IC50 [1, 21]: < 10 µM
IC50 [2, 22]: > 10 µM
Molecule: CN(c1ccc2c(c1)NC(=O)C(C)(C)O2)c1nc(Nc2cccc(-c3cnco3)c2)ncc1F [Compound 1023, N4-(2,2-Dimethyl-3-oxo-4H-benz[1,4]oxazin-6-yl)-5-fluoro-N4-methyl-N2-[3-(oxazol-5-yl)phenyl]-2,4-pyrimidinediamine]

IC50 [1, 17]: < 10 µM
IC50 [2, 6]: < 10 µM
Molecule: CCCn1ncc2ccc(Nc3ncc(F)c(Nc4ccc(OC)c(Cl)c4)n3)cc21 [Compound 706, N4-(3-Chloro-4-methoxyphenyl)-5-fluoro-N2-(1-n-propylindazol-6-yl)-2,4-pyrimidinediamine]

IC50 [1, 5]: < 10 µM
IC50 [2, 6]: > 10 µM
Molecule: CC(=O)N1CCN(c2cccc(Nc3ncc(F)c(NC4CNC4)n3)c2)CC1 [Compound 1127]
